Test results from patent US10752587B2, “Homobispiperidinyl derivatives as liver X receptor beta agonists, compositions and their use” (Merck Sharp & Dohme Corp., priority 2015, dated 2020).
pEC50: −log10 of the molar value. Like-named read-outs stand apart in the source and are kept apart here.

Key:
[1] = target: T1, glutathione-S-transferase (GST) tagged LXRalpha LBD (ligand binding domain) (Homo sapiens, UniProt Q13133); assay: LanthaScreen TR-FRET Liver X Receptor Coactivator Assay, co-activator recruitment to LXRalpha LBD; assay type: biochemical
T1 construct: purchased Invitrogen pv4655
T1 sequence (Q13133 209-447 limits assumed): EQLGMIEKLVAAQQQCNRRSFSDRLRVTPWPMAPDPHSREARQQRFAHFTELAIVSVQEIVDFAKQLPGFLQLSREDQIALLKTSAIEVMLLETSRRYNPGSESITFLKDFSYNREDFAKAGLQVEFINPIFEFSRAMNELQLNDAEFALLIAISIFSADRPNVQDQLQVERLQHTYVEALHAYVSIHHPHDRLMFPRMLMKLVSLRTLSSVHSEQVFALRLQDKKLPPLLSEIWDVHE
Outline: (§1)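 Compound-induced coactivator recruitment by the GST-fused ligand binding domain, detected as TR-FRET between Tb-labelled anti-GST antibody and fluorescein-tagged coactivator peptide after room-temperature incubation. IP and Emax expressed versus T0901317 as reference agonist.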

[2] = target: T2, glutathione-S-transferase (GST) tagged LXRbeta LBD (ligand binding domain) (Homo sapiens, UniProt P55055); assay: LanthaScreen TR-FRET Liver X Receptor Coactivator Assay, co-activator recruitment to LXRbeta LBD; assay type: biochemical
T2 construct: purchased Invitrogen pv4658.pps
T2 sequence (P55055 222-460 limits assumed): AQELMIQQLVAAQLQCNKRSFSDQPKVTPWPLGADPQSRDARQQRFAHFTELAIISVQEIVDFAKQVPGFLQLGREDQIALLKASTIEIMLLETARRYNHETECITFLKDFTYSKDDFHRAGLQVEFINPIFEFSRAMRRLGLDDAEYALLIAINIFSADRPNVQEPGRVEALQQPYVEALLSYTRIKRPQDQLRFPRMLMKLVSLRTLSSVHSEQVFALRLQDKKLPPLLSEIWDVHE
Outline: as §1

[3] = efficacy at max dose, in relation to reference dual agonist T0901317, read-out: LXR alpha Activity @ max dose (%)
[4] = potency (Inflection Point, IP), co-activator recruitment to LXRalpha LBD, in relation to T0901317
[5] = efficacy at max dose, in relation to reference dual agonist T0901317, read-out: LXR beta Activity @ max dose (%)
[6] = potency (Inflection Point, IP), co-activator recruitment to LXRbeta LBD, in relation to T0901317, read-out: LXR beta IP
[7] = potency (Inflection Point, IP), co-activator recruitment to LXRalpha LBD, in relation to T0901317, read-out: LXR alpha IP
[8] = efficacy at max dose, in relation to reference dual agonist T0901317

COc1cccc([C@@](O)(C(=O)N2CCC(CC3CCN(c4ccc(C(=O)N(C)C)c(C)n4)CC3)CC2)C(F)(F)F)c1 [Example 7-5, N,N,2-trimethyl-6-[4-({1-[(2R)-3,3,3-trifluoro-2-hydroxy-2-(3-methoxyphenyl)propanoyl]piperidin-4-yl}methyl)piperidin-1-yl]pyridine-3-carboxamide]
Emax [1, 3]: 8% | LXR alpha IP (nM) [1, 4]: NO IP | Emax [2, 5]: 69% | pEC50 [2, 6]: 7.60

CN(C)C(=O)c1ccc(N2CCC(CC3CCN(C(=O)[C@](N)(c4ccccc4)C(F)(F)F)CC3)CC2)nc1Cl [Example 7-111, 6-[4-({1-[(2R)-2-amino-3,3,3-trifluoro-2-phenylpropanoyl]piperidin-4-yl}methyl)piperidin-1-yl]-2-chloro-N,N-dimethylpyridine-3-carboxamide]
Emax [1, 3]: 49% | pEC50 [1, 7]: 5.76 | Emax [2, 5]: 151% | pEC50 [2, 6]: 7.31

CC(C)C(O)(C(=O)N1CCC(CC2CCN(c3ccc(C(=O)N(C)C)c(Cl)n3)CC2)CC1)C(F)(F)F (stereo not shown) [Example 7-59, 2-chloro-6-[4-({1-[2-hydroxy-3-methyl-2-(trifluoromethyl)butanoyl]piperidin-4-yl}methyl)piperidin-1-yl]-N,N-dimethylpyridine-3-carboxamide]
Emax [1, 3]: 39% | pEC50 [1, 7]: 5.57 | Emax [2, 5]: 107% | pEC50 [2, 6]: 6.53

CN(C)C(=O)c1ccc(N2CCC(CC3CCN(C(=O)C4(c5ccccc5)CC4)CC3)CC2)cc1Cl [Example 2-9, 2-chloro-N,N-dimethyl-4-[4-({1-[(1-phenyl-cyclopropyl)carbonyl]piperidin-4-yl}methyl)piperidin-1-yl] benzamide]
Emax [1, 3]: 0% | LXR alpha IP (nM) [1, 4]: NO IP | Emax [2, 5]: 48% | pEC50 [2, 6]: 7.01

CCOc1cccc([C@@](O)(C(=O)N2CCC(CC3CCN(c4ccc(C(=O)N(C)C)cc4)CC3)CC2)C(F)(F)F)c1 [Example 2-145, 4-[4-({1-[(2R)-2-(3-ethoxy-phenyl)-3,3,3-trifluoro-2-hydroxy-propanoyl]piperidin-4-yl}methyl)piperidin-1-yl]-N,N-dimethyl-benzamide]
Emax [1, 3]: 4% | LXR alpha IP (nM) [1, 4]: NO IP | Emax [2, 5]: 54% | pEC50 [2, 6]: 7.14

CNC(=O)c1ccc(N2CCC(CC3CCN(C(=O)[C@](O)(c4cccc(OC(C)C)c4)C(F)(F)F)CC3)CC2)nc1Cl [Example 7-136, 2-chloro-N-methyl-6-{4-[(1-{(2R)-3,3,3-trifluoro-2-hydroxy-2-[3-(1-methylethoxy)phenyl]propanoyl}piperidin-4-yl)methyl]piperidin-1-yl}pyridine-3-carboxamide]
Emax [1, 3]: 6% | LXR alpha IP (nM) [1, 4]: NO IP | Emax [2, 5]: 86% | pEC50 [2, 6]: 7.85

CN(C)C(=O)c1ccc(N2CCC(CC3CCN(C(=O)[C@](O)(c4ccccc4)C(F)(F)C(F)(F)F)CC3)CC2)nc1Cl [Example 7-60, 2-chloro-N,N-dimethyl-6-[4-({1-[(2R)-3,3,4,4,4-pentafluoro-2-hydroxy-2-phenylbutanoyl]piperidin-4-yl}methyl)piperidin-1-yl]pyridine-3-carboxamide]
Emax [1, 3]: 60% | pEC50 [1, 7]: 6.83 | Emax [2, 5]: 153% | pEC50 [2, 6]: 8.15

CN(C)C(=O)c1ccc(N2CCC(CC3CCN(C(=O)[C@](O)(c4cccc(Cl)c4)C(F)(F)F)CC3)CC2)nc1Cl [Example 7-69, 2-chloro-6-[4-({1-[(2R)-2-(3-chlorophenyl)-3,3,3-trifluoro-2-hydroxypropanoyl]piperidin-4-yl}methyl)piperidin-1-yl]-N,N-dimethylpyridine-3-carboxamide]
Emax [1, 3]: 30% | pEC50 [1, 7]: 7.15 | Emax [2, 5]: 82% | pEC50 [2, 6]: 8.52

CN(C)C(=O)c1ccc(N2CCC(OC3CCN(C(=O)N4CC(O)(C(F)(F)F)C4)CC3)CC2)cc1Cl [Example 8-1, 2-chloro-4-(4-((1-(3-hydroxy-3-(trifluoromethyl)azetidine-1-carbonyl)piperidin-4-yl)oxy)piperidin-1-yl)-N,N-dimethylbenzamide]
Emax [1, 3]: 2% | LXR alpha IP (nM) [1, 4]: NO IP | Emax [2, 5]: 18% | pEC50 [2, 6]: 4.52

CN(C)C(=O)c1ccc(N2CCC(CC3CCN(C(=O)[C@@](O)(c4cc(F)cc(Cl)c4)C(F)(F)F)CC3)CC2)nc1Cl [Example 7-113, 2-chloro-6-[4-({1-[(2S)-2-(3-chloro-5-fluorophenyl)-3,3,3-trifluoro-2-hydroxypropanoyl]piperidin-4-yl}methyl)piperidin-1-yl]-N,N-dimethylpyridine-3-carboxamide]
Emax [1, 3]: 31% | pEC50 [1, 7]: 5.79 | Emax [2, 5]: 125% | pEC50 [2, 6]: 7.47

Cc1cc(N2CCC(CC3CCN(C(=O)C(O)(c4cccc(Cl)c4)C(F)(F)F)CC3)CC2)ncc1C(=O)N(C)C (stereo not shown) [Example 7-4, 6-[4-({1-[2-(3-chlorophenyl)-3,3,3-trifluoro-2-hydroxypropanoyl]piperidin-4-yl}methyl)piperidin-1-yl]-N,N,4-trimethylpyridine-3-carboxamide]
pEC50 [1, 7]: 5.88 | Emax ([1]; read-out: LXR alpha Activity @ max dose (%)): 19% | pEC50 [2, 6]: 7.28 | Emax ([2]; read-out: LXR beta Activity @ max dose (%)): 63%

CN(C)C(=O)c1ccc(N2CCC(CC3CCN(S(=O)(=O)c4cccc(F)c4)CC3)CC2)cc1Cl [Example 13-7, 2-chloro-4-[4-({1-[(3-fluorophenyl)sulfonyl]-piperidin-4-yl}methyl)-piperidin-1-yl]-N,N-dimethylbenzamide]
pEC50 ([1]; co-activator recruitment to GST-LXRalpha LBD, TR-FRET, read-out: LXR alpha IP (Inflection Point, potency)): 5.93 | Emax ([1]; efficacy in relation to reference dual agonist T0901317, read-out: LXR alpha Activity @ max dose): 25% | pEC50 ([2]; co-activator recruitment to GST-LXRbeta LBD, TR-FRET, read-out: LXR beta IP (Inflection Point, potency)): 7.22 | Emax ([2]; efficacy in relation to reference dual agonist T0901317, read-out: LXR beta Activity @ max dose): 67%

COc1cccc([C@@](O)(C(=O)N2CCC(CC3CCN(c4cnc(C(=O)N(C)C)c(Cl)c4)CC3)CC2)C(F)(F)F)c1 [Example 2-3, 3-chloro-N,N-dimethyl-5-[4-({1-[(2R)-3,3,3-trifluoro-2-hydroxy-2-(3-methoxyphenyl)propanoyl]piperidin-4-yl}methyl)piperidin-1-yl]pyridine-2-carboxamide]
Emax [1, 3]: 6% | LXR alpha IP (nM) [1, 4]: NO IP | Emax [2, 5]: 50% | pEC50 [2, 6]: 7.59

COc1cccc([C@@](O)(C(=O)N2CCC(CC3CCN(c4ccc(C(=O)N(C)C)c(C)n4)CC3)CC2)C(F)(F)F)c1 [Example 7-8, N,N,2-trimethhyl-6-[4-({1-[(2R)-3,3,3-trifluoro-2-hydroxy-2-(3-methoxyphenyl)propanoyl]piperidin-4-yl}methyl)piperidin-1-yl]pyridine-3-carboxamide]
LXR alpha Activity @ max dose (%) [1, 8]: 6% | LXR beta Activity @ max dose (%) [2, 8]: 53% | pEC50 [2, 6]: 7.92

O=C(c1ccc(N2CCC(CC3CCN(C(=O)[C@](O)(c4ccccc4)C(F)(F)F)CC3)CC2)cc1Cl)N1C2CCC1CC2 [Example 4-5, (2R)-3-[4-({1-[4-(7-azabicyclo[2.2.1]hept-7-ylcarbonyl)-3-chlorophenyl]piperidin-4-yl}methyl)piperidin-1-yl]-1,1,1-trifluoro-3-oxo-2-phenylpropan-2-ol]
Emax [1, 3]: 29% | pEC50 [1, 7]: 6.40 | Emax [2, 5]: 53% | pEC50 [2, 6]: 7.23

NC(=O)c1ccc(N2CCC(CC3CCN(C(=O)[C@](O)(c4cc(Cl)cc(Cl)c4)C(F)(F)F)CC3)CC2)cc1Cl [Example 12-1, 2-chloro-4-[4-({1-[(2R)-2-(3,5-dichlorophenyl)-3,3,3-trifluoro-2-hydroxypropanoyl]piperidin-4-yl}methyl)piperidin-1-yl]benzamide]
Emax [1, 3]: 9% | LXR alpha IP (nM) [1, 4]: NO IP | Emax [2, 5]: 37% | pEC50 [2, 6]: 8.52

CN(C)C(=O)c1ccc(N2CCC(CC3CCN(C(=O)[C@](O)(c4ccccc4)C(F)(F)C(F)(F)F)CC3)CC2)cc1Cl [Example 2-14, 2-chloro-N,N-dimethyl-4-[4-({1-[(2R)-3,3,4,4,4-pentafluoro-2-hydroxy-2-phenylbutanoyl]piperidin-4-yl}methyl)piperidin-1-yl]benzamide]
LXR alpha Activity @ max dose (%) [1, 8]: 14% | LXR alpha IP (nM) [1, 4]: NO IP | LXR beta Activity @ max dose (%) [2, 8]: 89%

CCc1cccc([C@@](O)(C(=O)N2CC(CC3CCN(c4ccc(C(=O)N(C)C)c(Cl)n4)CC3)C2)C(F)(F)F)c1 [Example 7-43, 2-chloro-6-[4-({1-[(2R)-2-(3-ethylphenyl)-3,3,3-trifluoro-2-hydroxypropanoyl]azetidin-3-yl}methyl)piperidin-1-yl]-N,N-dimethylpyridine-3-carboxamide]
Emax [1, 3]: 16% | LXR alpha IP (nM) [1, 4]: NO IP | Emax [2, 5]: 80% | pEC50 [2, 6]: 7.48
